Measurements as given in PMC8607422, “Development of a novel TLR8 agonist for cancer immunotherapy” (Molecular Biomedicine, 2020).
Like-named read-outs stand apart in the source and are kept apart here.

Assays:
hERG potassium channel = system: T1, hERG potassium channel; test: Eurofins Cerep44 off-target panel; conditions: human; 10 μM compound; >50% considered significant; read-out: effect on potassium channel hERG in Cerep screen (% inhibition of binding)
T1 construct: purchased Eurofins Cerep44 panel
Experimental: Compound binding was calculated as a % inhibition of the binding of a radioactively labeled ligand specific for each target. Compound enzyme inhibition effect was calculated as a % inhibition of control enzyme activity.

in vivo = test: in vivo; parameters: species or system cynomolgus monkeys; conditions: cynomolgus, cynomolgus monkey, sc, 1 mg/kg
Experimental: To determine the in vivo pharmacokinetic profiles, the compounds were formulated with 11% captisol and then administered iv, ip, sc and po into Sprague Dawley rats or iv and sc into mice or cynomolgus monkeys, respectively. Blood samples were collected before dosing and 0.083 h, 0.25 h, 0.5 h, 1 h, 2 h, 4 h, 6 h, 8 h, 12 h and 24 h after dosing. Blood samples were collected in tubes containing K2EDTA. Plasma was isolated from the blood samples by centrifugation of the blood samples at 2400 × g for 5 min at 4°C. Plasma samples were measured using LC-MS/MS (Waters ACQUITY UPLC and TQ 6500+) to determine the concentration of compounds. The data was analyzed using WinNonlin 7.0 to calculate the PK parameters such as AUC0-t, AUC0-∞, MRT0-∞, Cmax, Tmax, t1/2 and F.

[1] = parameters: method as in Northfelt, et al., [39]; conditions: human, sc 0.1 mg/m^2; ref Northfelt, et al., [39]; cited from earlier work
[2] = system: HL-60 human acute promyelocytic leukemia (AML) cells; test: Human HL-60 AML mouse xenograft model; assay type: in vivo; conditions: HL-60 AML xenograft, NOD/SCID mice, 1.3 mg/kg sc once a week
Experimental: All the animal experiments were conducted following Association for Assessment and Accreditation of Laboratory Animal Care (AAALAC)‘s guideline. The animal protocols were approved by the Institutional Animal Care and Use Committee (IACUC). Cell lines were purchased from credible vendors including ATCC. After tumor cell inoculation, the animals were checked daily for morbidity and mortality. At the time of routine monitoring, the animals were checked for any effects of tumor growth and treatment on the animals’ well-being such as mobility, food and water consumption, body weight gain/loss, matting and any other abnormalities. Clinical observations were recorded. Tumor volumes were measured twice a week in two dimensions using a caliper and the volume was expressed in mm^3 using the formula: V = 0.5 a × b^2 where a and b are the long and short diameters of the tumor, respectively. The procedures of dosing as well as tumor and body weight measurement were conducted in a laminar flow cabinet.
For HL-60 experiment, HL-60 human acute promyelocytic leukemia (AML) cells were cultured in vitro in suspension in RPMI1640 medium supplemented with 10% fetal bovine serum and 1% penicillin/streptomycin at 37°C in an atmosphere of 5% CO2 in air. The tumor cells were routinely passaged twice per week. The cells growing in the exponential growth phase were harvested and counted for tumor inoculation. […]

hERG = target: T2, hERG (Homo sapiens, UniProt Q12809); test: hERG assay, whole-cell recordings with automated QPatch in CHO cells; assay type: cell-based
T2 construct: expressed in transfected cells; host or cells: CHO
T2 sequence (Q12809 whole entry): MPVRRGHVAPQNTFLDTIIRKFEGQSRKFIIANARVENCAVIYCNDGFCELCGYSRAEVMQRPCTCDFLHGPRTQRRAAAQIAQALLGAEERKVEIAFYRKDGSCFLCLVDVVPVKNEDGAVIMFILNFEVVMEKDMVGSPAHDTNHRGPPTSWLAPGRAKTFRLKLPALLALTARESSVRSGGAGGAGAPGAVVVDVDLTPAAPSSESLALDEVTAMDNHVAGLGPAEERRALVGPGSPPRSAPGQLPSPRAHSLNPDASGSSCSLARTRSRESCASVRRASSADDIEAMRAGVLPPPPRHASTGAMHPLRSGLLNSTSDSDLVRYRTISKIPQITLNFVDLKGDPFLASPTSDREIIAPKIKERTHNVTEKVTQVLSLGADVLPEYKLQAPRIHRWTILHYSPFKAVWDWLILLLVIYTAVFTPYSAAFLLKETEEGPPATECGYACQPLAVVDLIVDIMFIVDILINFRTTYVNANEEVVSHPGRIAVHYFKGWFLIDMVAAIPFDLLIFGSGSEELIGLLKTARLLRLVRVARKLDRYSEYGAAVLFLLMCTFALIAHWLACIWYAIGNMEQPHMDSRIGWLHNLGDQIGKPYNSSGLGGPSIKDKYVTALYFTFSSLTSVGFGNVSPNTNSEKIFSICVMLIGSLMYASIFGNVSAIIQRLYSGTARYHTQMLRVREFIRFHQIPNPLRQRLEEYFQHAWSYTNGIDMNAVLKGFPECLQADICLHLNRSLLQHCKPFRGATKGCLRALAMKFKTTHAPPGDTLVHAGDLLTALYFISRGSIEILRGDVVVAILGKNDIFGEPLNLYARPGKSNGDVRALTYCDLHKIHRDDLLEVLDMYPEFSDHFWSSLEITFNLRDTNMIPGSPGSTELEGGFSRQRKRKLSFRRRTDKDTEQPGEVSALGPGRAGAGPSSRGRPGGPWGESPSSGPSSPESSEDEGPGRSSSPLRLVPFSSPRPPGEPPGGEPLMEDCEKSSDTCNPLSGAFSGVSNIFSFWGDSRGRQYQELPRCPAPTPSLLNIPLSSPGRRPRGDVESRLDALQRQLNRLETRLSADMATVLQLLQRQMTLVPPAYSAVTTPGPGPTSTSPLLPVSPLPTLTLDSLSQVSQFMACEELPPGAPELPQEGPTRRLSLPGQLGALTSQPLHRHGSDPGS
Experimental: hERG assay was conducted using CHO cell line stably transduced with hERG cDNA. Whole-cell recordings were performed using automated QPatch (Sophion Biosciences). Data were analyzed using Assay Software provided by Sophion (assay software V5.0), Microsoft Excel and GraphPad Prism.

serum cytokines = test: In vivo cytokine induction in monkeys; parameters: species or system cynomolgus monkeys; conditions: monkey, 1 mg/kg sc single dose
Experimental: Cynomolgus monkeys were purchased from Guangxi Xiongsen Primate Laboratory Animals Co., Ltd. (Guangxi, China) and three 3–4 years old male monkeys were used in each group. […] A single dose of motolimod was sc administered at 1 mg/kg. Blood samples were collected pre-dose, 6 and 24 h post-dose. Levels of cytokines including IFN-γ, IL-10, IL-1β, IL-6, IL-8, MIP-1α, MIP-1β, G-CSF, IL-12p40, IL-12p70 and TNF-α were measured using MSD ECL cytokine assay kit following the manufacturer’s protocol.

Structure (SMILES): CCCN(CCC)C(=O)C1=Cc2ccc(-c3ccc(C(=O)N4CCCC4)cc3)cc2N=C(N)C1 [Motolimod, motolimod]
- inhibition at 10 µM (hERG potassium channel): 59.2%
- AUC(0-inf) (in vivo): 270 ng·h/mL
- AUC(0-t) (in vivo): 270 ng·h/mL
- Cmax (in vivo): 80 ng/mL
- MRT inf (in vivo): 2.95 h
- Tmax (in vivo): 2 h
- half-life (in vivo): 1.43 h
- AUC(0-t) [1]: 2.99 ng·h/mL
- Cmax [1]: 1.52 ng/mL
- Tmax [1]: 0.53 h
- t1/2 [1]: 1.73 h
- tumor growth inhibition (TGI) rate [2]: 17%
- IC50 (hERG): 3.84 µM
- serum G-CSF, Mean Values (serum cytokines; 0 h (pre-dose)): 7.135 pg/mL
- serum IFN-γ, Mean Values (serum cytokines; 0 h (pre-dose)): 1.017 pg/mL
- serum IL-1β, Mean Values (serum cytokines; 0 h (pre-dose)): 0.000 pg/mL
- serum IL-6, Mean Values (serum cytokines; 0 h (pre-dose)): 1.510 pg/mL
- serum IL-8, Mean Values (serum cytokines; 0 h (pre-dose)): 0.000 pg/mL
- serum IL-10, Mean Values (serum cytokines; 0 h (pre-dose)): 0.271 pg/mL
- serum IL-12p40, Mean Values (serum cytokines; 0 h (pre-dose)): 131.413 pg/mL
- serum IL-12p70, Mean Values (serum cytokines; 0 h (pre-dose)): 2.582 pg/mL
- serum MIP-1α, Mean Values (serum cytokines; 0 h (pre-dose)): 71.636 pg/mL
- serum MIP-1β, Mean Values (serum cytokines; 0 h (pre-dose)): 93.266 pg/mL
- serum G-CSF, Mean Values (serum cytokines; 6 h): 345.154 pg/mL
- serum IFN-γ, Mean Values (serum cytokines; 6 h): 0.500 pg/mL
- serum IL-1β, Mean Values (serum cytokines; 6 h): 0.286 pg/mL
- serum IL-6, Mean Values (serum cytokines; 6 h): 342.661 pg/mL
- serum IL-8, Mean Values (serum cytokines; 6 h): 0.378 pg/mL
- serum IL-10, Mean Values (serum cytokines; 6 h): 15.222 pg/mL
- serum IL-12p40, Mean Values (serum cytokines; 6 h): 305.212 pg/mL
- serum IL-12p70, Mean Values (serum cytokines; 6 h): 5.154 pg/mL
- serum MIP-1α, Mean Values (serum cytokines; 6 h): 227.638 pg/mL
- serum MIP-1β, Mean Values (serum cytokines; 6 h): 1655.094 pg/mL
- serum G-CSF, Mean Values (serum cytokines; 24 h): 32.168 pg/mL
- serum IFN-γ, Mean Values (serum cytokines; 24 h): 0.462 pg/mL
- serum IL-1β, Mean Values (serum cytokines; 24 h): 0.099 pg/mL
- serum IL-6, Mean Values (serum cytokines; 24 h): 12.185 pg/mL
- serum IL-8, Mean Values (serum cytokines; 24 h): 0.119 pg/mL
- serum IL-10, Mean Values (serum cytokines; 24 h): 1.347 pg/mL
- serum IL-12p40, Mean Values (serum cytokines; 24 h): 118.409 pg/mL
- serum IL-12p70, Mean Values (serum cytokines; 24 h): 3.305 pg/mL
- serum MIP-1α, Mean Values (serum cytokines; 24 h): 87.417 pg/mL
- serum MIP-1β, Mean Values (serum cytokines; 24 h): 221.881 pg/mL
